Reference: patent publication EP0394314B2, “MULTIPLE STEP ENTRAPMENT/LOADING PROCEDURE FOR PREPARING […]-[…]” (VESTAR, INC., priority 1987, dated 1989)
Where a name gives a salt, the structure may show the parent alone.

What was measured:
[1] = Toxicity of doxorubicin vesicles versus free drug, intravenous tests in mice; type: in vivo; conditions: 20 mg/kg or equivalent dose
Text: In nearly all instances of vesicle-entrapped doxorubicin reported in the literature, the loaded vesicles are less toxic than the free drug.
Doxorubicin vesicles can also be prepared with citric acid.

[2] = test system: White blood cell (w.b.c.) counts; assay: White blood cell counts after doxorubicin treatment; type: in vivo, CD2F1 mice; conditions: doxorubicin dose 40 mg/kg (for the equivalent hydrochloride); four days post therapy
Description: White blood cell (w.b.c.) counts were performed on CD2F1 mice receiving doxorubicin doses of 40 mg/kg (for the equivalent hydrochloride). Mice receiving free drug experienced severe depression in w.b.c. counts: at four days post therapy, counts were only 8.5% of pretherapy values. In contrast, mice treated with doxorubicin vesicles prepared in accordance with this invention (Example III) at the same doxorubicin dosage experienced only moderate suppression in w.b.c. counts: at four days post therapy, counts were 75% of pretherapy values.

[3] = Maximum tolerated dose of a single intravenous dose; conditions: mouse, in vivo, CD2F1 mice, vesicles normalized to the hydrochloride, read-out: maximum tolerated dose (MTD, non-lethal)
Description: This compares to an MTD of about 40 mg/kg (normalized to the hydrochloride) for doxorubicin vesicles prepared as described in Example III. In contrast, the MTD for doxorubicin vesicles, when prepared as described in Example III with the exception that citric acid was substituted for lactobionic acid, was only about 10 mg/kg, less than the MTD for the free drug.

Q: Which tolerance of dose [1] does the source give for `COc1cccc2c1C(=O)c1c(O)c3c(c(O)c1C2=O)C[C@@](O)(C(=O)CO)C[C@@H]3O[C@H]1C[C@H](N)[C@H](O)[C@H](C)O1` [doxorubicin hydrochloride] here?
A: The tolerance of dose was “tolerated”.

Q: And the “w.b.c. counts, % of pretherapy values” [2]?
A: The value was 8.5%.

Q: And the MTD [3]?
A: The MTD was ~25 mg/kg.
